Laboratory results: patent publication US20110207775A1, “AGENT THAT MODULATES PHYSIOLOGICAL CONDITION OF PESTS, INVOLVED IN INSECT VESICLE-FUSING ATPASE ACTIVITY” (SUMITOMO CHEMICAL COMPANY, LIMITED, priority 2006, published 2011)
pIC50: −log10 of the molar value.

Tests used:
[1] = target: cotton aphid vesicle-fusing ATPase (Aphis gossypii, UniProt A0A9P0IYS6); experiment: Inhibition of cotton aphid vesicle-fusing ATPase activity (Kinase-Glo luminescent assay of ATP not hydrolyzed); format: biochemical; details: for pIC50: 8 concentrations from 100 μM to 0.03 μM, calculated with XLfit, read-out: Activity of inhibiting vesicle-fusing ATPase activity (IC50)
Description: Selection of a compound which modulates a vesicle-fusing ATPase activity was performed in a system for measuring and evaluating the vesicle-fusing ATPase activity, the activity being modulated by adding a test compound to an in vitro reaction system using the cotton aphid vesicle-fusing ATPase prepared in Example 7.
As for a measurement of the cotton aphid vesicle-fusing ATPase activity, after the enzymatic reaction of vesicle-fusing ATPase using ATP as a substrate, an amount of ATP that was not hydrolyzed was measured as the amount of luminescence of luciferase using Kinase-Glo™ Luminescent Kinase Assay (manufactured by Promega), according to a method described in the instruction attached to the kit. The vesicle-fusing ATPase activity was calculated from the amount of luminescence.
For measuring the activity, the activity of the aphid vesicle-fusing ATPase was measured when a test compound dissolved in DMSO was contained to a final concentration of 10 μM. In addition, the activity of the aphid vesicle-fusing ATPase was measured when DMSO was contained in place of a test compound. Then, a ratio (%) of a measured value of the activity of the aphid vesicle-fusing ATPase when a test compound dissolved in DMSO was contained, relative to a measured value of the activity of aphid vesicle-fusing ATPase when DMSO was contained in place of the test compound was calculated, and a value obtained by subtracting the calculated value from 100% was adopted as an inhibition degree (%). The results in each test compound are shown in Table 4 in Example 9 together with results of Example 9.
The activity of aphid vesicle-fusing ATPase was measured when a test compound dissolved in DMSO was contained to a final concentration of each concentration of 100 μM, 30 μM, 10 μM, 3 μM, 1 μM, 0.3 μM, 0.1 μM or 0.03 μM. IC50 (μM) was calculated from the result of each concentration at each test compound using a concentration-dependent test analyzing software XL fit (manufactured by idbs). The results are shown in Table 5 in Example 10 together with results of Example 9.

[2] = system: Aphis gossypii; experiment: Pesticidal activity test, cotton aphid reared on artificial feed containing test compound; format: in vivo; details: same manner as Example 9: 50 ppm in artificial feed, 6 days, controlling value of 30% or more = pesticidal activity
[3] = system: vesicle-fusing ATPase; details: ATPase inhibitor; Steel et al. 1999, Morgan et al. 1994; cited from earlier work
[4] = test compound in DMSO at final concentration 10 μM, relative to DMSO control

Sequence of cotton aphid vesicle-fusing ATPase (A0A9P0IYS6 1-478): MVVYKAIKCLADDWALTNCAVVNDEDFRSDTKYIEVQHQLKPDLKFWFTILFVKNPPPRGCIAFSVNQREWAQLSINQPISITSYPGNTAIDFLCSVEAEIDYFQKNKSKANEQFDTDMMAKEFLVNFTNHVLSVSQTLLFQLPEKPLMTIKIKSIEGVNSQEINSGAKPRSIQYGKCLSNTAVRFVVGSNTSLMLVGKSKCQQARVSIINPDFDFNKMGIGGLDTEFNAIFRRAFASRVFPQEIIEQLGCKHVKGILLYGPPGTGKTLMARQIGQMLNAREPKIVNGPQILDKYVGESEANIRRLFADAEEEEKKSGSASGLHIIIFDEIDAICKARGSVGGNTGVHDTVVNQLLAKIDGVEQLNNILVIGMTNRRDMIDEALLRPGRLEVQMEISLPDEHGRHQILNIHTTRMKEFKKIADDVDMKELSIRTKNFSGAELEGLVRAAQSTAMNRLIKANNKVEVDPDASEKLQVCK

Compound | pIC50 [1] | Determination result of pesticidal activity (Result of Example 10) [2] | Activity of inhibiting vesicle-fusing ATPase activity (inhibition degree (%) at 10 μm addition) [1, 4] [%] | Activity against vesicle-fusing ATPase [3] | inhibition at 10 µM ([1]; test compound in DMSO at final concentration 10 μM, relative to DMSO control, read-out: Activity of inhibiting vesicle-fusing ATPase activity (inhibition degree (%) at 10 μm addition)) [%]
Cc1ccc2c(c1)C(=O)C1(O)CCN(c3ccccc3)C1=N2 (racemic) [(±)-Blebbistatin] | < 4.00 | Absence of | – | – | –
Clc1ccc(C(c2ccc(Cl)cc2)n2cc[n+](CC(OCc3ccc(Cl)cc3Cl)c3ccc(Cl)cc3Cl)c2)cc1 (centres unmarked) [Calmidazolium Chloride] | 5.33 | – | 80 | – | –
CCN1C(=O)C=CC1=O [N-ethylmaleimide] | – | – | – | show also activity against vesicle-fusing ATPase | –
CCCCCCCCCCCCC(=O)N1CCCCC1CNC(=O)[C@@H](N)CCCCN.Cl.Cl (some centres unmarked) [NPC15437 dihydrochloride] | 4.72 | – | 35 | – | –
Cc1ccc(C(=O)Nc2ccc(S(=O)(=O)O)c3cc(S(=O)(=O)O)cc(S(=O)(=O)O)c23)cc1NC(=O)c1cccc(NC(=O)Nc2cccc(C(=O)Nc3cc(C(=O)Nc4ccc(S(=O)(=O)O)c5cc(S(=O)(=O)O)cc(S(=O)(=O)O)c45)ccc3C)c2)c1 [Suramin] | 5.72 | – | – | – | 100
Hypocrellin B | < 4.00 | Absence of | – | – | –
